Data on 10 molecules can be found in article PMC10192561 (Frontiers in Pharmacology, 2023).

Each structure is given as a SMILES string. “Also recorded” adds a separate entry of the source. Where two headings read alike, the source gives them in different places.

As usually defined, the IC50 is the midpoint of a concentration-inhibition curve. High values mean lower potency, low ones higher potency. For orientation: Ki means the equilibrium dissociation constant of an inhibitor or competing ligand from its target. Read a low Ki as a stronger hold on the target. Broadly, the AUC(0-inf) is total exposure, with the tail of the curve extrapolated. Read a high AUC(0-inf) as more exposure. By AUC(0-t) is commonly meant the area under the concentration-time curve up to a stated or last time point. Broadly, the Cmax is the highest concentration seen after dosing. What is called Tmax is the time from dosing to the highest level. As a reminder, the half-life is the time in which the quantity being followed falls by half. Read a high half-life as slow loss. As usually defined, the Km is the concentration of substrate that gives half-maximal velocity.

The target in data set [1] is flumatinib metabolism in HLM (Homo sapiens, UniProt P08684). Kind of data set: Inhibition of flumatinib metabolism in human liver microsome incubation (UPLC-MS/MS). On the technique in general: Liver microsomes are a subcellular fraction often used to study metabolism.
Sequence of flumatinib metabolism in HLM (P08684 2-503): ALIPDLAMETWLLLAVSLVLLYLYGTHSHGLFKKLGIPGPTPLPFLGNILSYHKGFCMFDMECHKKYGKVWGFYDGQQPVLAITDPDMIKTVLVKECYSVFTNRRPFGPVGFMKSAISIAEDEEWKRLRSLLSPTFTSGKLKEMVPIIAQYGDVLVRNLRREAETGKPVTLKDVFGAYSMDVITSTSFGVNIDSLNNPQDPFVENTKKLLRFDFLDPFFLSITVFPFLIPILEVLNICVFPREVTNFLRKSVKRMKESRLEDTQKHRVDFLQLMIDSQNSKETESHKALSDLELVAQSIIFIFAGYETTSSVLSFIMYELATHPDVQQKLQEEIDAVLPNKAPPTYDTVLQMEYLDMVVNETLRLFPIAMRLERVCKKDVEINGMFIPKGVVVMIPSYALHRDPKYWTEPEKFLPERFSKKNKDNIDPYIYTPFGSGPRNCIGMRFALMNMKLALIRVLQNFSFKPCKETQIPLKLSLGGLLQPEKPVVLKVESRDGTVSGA
Data set [2] concerns flumatinib metabolism in RLM. Nature of the data set: Inhibition of flumatinib metabolism in rat liver microsome incubation (UPLC-MS/MS). The conditions noted are these: rat, rat liver microsomes.
The test system of data set [3] is rat liver microsomes (RLM). Described as above. The conditions noted are these: flumatinib metabolism in RLM.
The nature of data set [4]: Pharmacokinetics of flumatinib and M1 in SD rats with or without isavuconazole. The conditions noted are these: for AUC(0-inf) / AUC(0-t) / Cmax / Tmax / half-life / CL/F / MRT last / MRT inf: male, Sprague-Dawley, rat, plasma, po, 60 mg/kg; for CL/F: read-out: CLz/F (converted); for MRT last: read-out: MRT0→t; for MRT inf: read-out: MRT0→∞. The data set is classed as in vivo, Sprague-Dawley male rats. The procedure:
Quantification of the analytes was made by using a Waters XEVO TQS triple quadruple mass spectrometer with a multiple reaction monitoring (MRM) in positive ion mode. The mobile phase was consisted of 0.1% formic acid aqueous solution (A) and acetonitrile (B) at a flow rate of 0.4 mL/min. An elution program of 90% A (0–0.5 min), 90%–10% A (0.5–1.0 min), 10% A (1–1.5 min), 10%–90% A (1.5–1.6 min) and 90% A (1.6–2 min) was performed. The whole elution took 2 min. During the analysis, the temperature of the column and autosampler rack was controlled at 40°C and 10°C, respectively.
Sprague–Dawley male rats (SD male rats, 200 ± 20 g) were purchased from the Animal Experimental Center of The First Affiliated Hospital of Wenzhou Medical University (Zhejiang, China). […] The rats in both groups started fasting for 12 h ahead of the experiment, but were free to water. […] Tail vein blood samples were collected from rats in both groups at multiple time points (0.67, 1, 1.5, 2, 3, 4, 6, 8, 12, and 24 h). Subsequently, an additional 300 μL acetonitrile and 20 μL dasatinib (200 ng/mL) were added to 100 μL plasma. Then the mixture was vortexed to mix thoroughly for 2 min and centrifuged at 13,000 rpm for 10 min to obtain the final supernatant for UPLC-MS/MS analysis.
IC50 and enzyme kinetic parameters were obtained using GraphPad Prism 8.0 software (GraphPad software Inc., CA, United States). Non-compartmental analysis was performed by using Drugs and Statistics (DAS) software (version 3.0 software, Shanghai University of Traditional Chinese Medicine, China) to obtain pharmacokinetic profiles. Mean plasma concentration-time curves were generated using Origin 8.0, and the parameters were statistically investigated between groups using independent samples t-test by SPSS 24.0 software (SPSS Inc., Chicago, IL, United States). All data were expressed as mean ± SD and p < 0.05 was considered statistically significant.

Data set [5] has as its system rat liver microsomes (RLM). Nature of the data set: Michaelis-Menten kinetics of flumatinib metabolism in RLM. The conditions noted are these: flumatinib as substrate, RLM 0.4 mg/mL. The data set is classed as in vitro ADME. The procedure:
An in vitro liver microsome incubation system was set up, then the drug was added to the system and incubated for […] as to determine the metabolism of the drug by the microsomes. […] The NADPH-free mixture was preincubated at 37°C for 5 min, followed by the addition of 1 mM NADPH to activate the reaction. The mixture was incubated at 37 °C for 40 min until 20 μL of IS solution (200 ng/mL) and 400 μL of cool acetonitrile were added. It was then centrifuged at 13,000 rpm for 5 min. After that, 100 μL of the supernatant was taken to conduct the analysis by UPLC-MS/MS.

Details of data set [6]: method as in McCarthy et al., 2018. The conditions noted are these: co-administration with isavuconazole; ref McCarthy et al., 2018; cited from earlier work.
In data set [7] the target is flumatinib metabolism in HLM (CYP3A4; ketoconazole as positive control) (Homo sapiens, UniProt P08684). Kind of data set: Inhibition of flumatinib metabolism in human liver microsome incubation (UPLC-MS/MS). The conditions noted are these: human liver microsomes, probe flumatinib […] (at Km).
Sequence of flumatinib metabolism in HLM (CYP3A4; ketoconazole as positive control) (P08684 2-503): as above
For data set [8], the target named is recombinant human CYP3A4 (rCYP3A4) (Homo sapiens, UniProt P08684). Kind of data set: Inhibition of flumatinib metabolism in recombinant human CYP3A4 incubation (UPLC-MS/MS).
Sequence of recombinant human CYP3A4 (rCYP3A4) (P08684 whole entry): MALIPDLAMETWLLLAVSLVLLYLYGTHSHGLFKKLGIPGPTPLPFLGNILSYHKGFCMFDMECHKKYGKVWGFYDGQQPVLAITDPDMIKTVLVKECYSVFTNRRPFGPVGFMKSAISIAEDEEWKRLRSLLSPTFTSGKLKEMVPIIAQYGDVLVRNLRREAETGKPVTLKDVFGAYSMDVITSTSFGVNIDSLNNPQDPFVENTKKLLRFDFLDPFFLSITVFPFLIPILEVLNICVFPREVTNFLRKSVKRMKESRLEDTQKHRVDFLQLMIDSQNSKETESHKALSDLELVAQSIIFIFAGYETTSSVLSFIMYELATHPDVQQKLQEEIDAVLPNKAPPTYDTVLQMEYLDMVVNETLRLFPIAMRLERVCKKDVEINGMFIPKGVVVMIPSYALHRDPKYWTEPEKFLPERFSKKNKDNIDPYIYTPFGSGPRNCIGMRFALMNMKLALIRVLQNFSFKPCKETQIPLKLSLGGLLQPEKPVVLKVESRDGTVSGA
The mark [9] stands for this setting: probe flumatinib (2.17 µM in RLM, at Km).
Where [10] appears, read: group A: 60 mg/kg flumatinib dosed orally alone.
[11] abbreviates: group B: 20 mg/kg isavuconazole and 60 mg/kg flumatinib dosed orally.
The mark [12] stands for this setting: with 20 mg/kg isavuconazole vs flumatinib alone.

Take `CC[C@@H]([C@H](C)O)n1ncn(-c2ccc(N3CCN(c4ccc(OC[C@@H]5CO[C@@](Cn6cncn6)(c6ccc(F)cc6F)C5)cc4)CC3)cc2)c1=O` [posaconazole]: the IC50 at 40 min was determined as 1.72 µM in data set [1] (human liver microsomes, probe flumatinib ([…] in HLM, at Km)) and 1.53 µM in data set [2] (setting [9]).

Consider `OC(Cn1cncn1)(Cn1cncn1)c1ccc(F)cc1F` [fluconazole], for which the figures for the IC50 at 40 min in data set [1] and in data set [2] (setting [9]) were 92.6 µM and 24.8 µM, respectively.

Regarding `CC(=O)N1CCN(c2ccc(OCC3COC(Cn4ccnc4)(c4ccc(Cl)cc4Cl)O3)cc2)CC1` (stereo not drawn) [ketoconazole], in data set [3], the Inhibition type result is “mixed inhibitory mechanisms; also recorded: Mixed inhibition” and the affinity, expressed as Ki, was 0.33 µM.

As for `Cc1ncc(NC(=O)c2ccc(CN3CCN(C)CC3)c(C(F)(F)F)c2)cc1Nc1nccc(-c2cccnc2)n1` [flumatinib], in data set [4] (setting [10]), the AUC(0-inf) was 3040 ± 664 ng·h/mL, the AUC(0-t) turned out to be 2750 ± 887 ng·h/mL, the Cmax is 282 ± 36.8 ng/mL and the Tmax worked out at 6 ± 2.74 h. Also, in data set [4] (setting [10]), the half-life was 4.04 ± 2.65 h, the CL/F is 340 mL/min/kg, the MRT last came to 6.82 ± 1.94 h and the MRT inf was 7.66 ± 2.01 h. Moreover, in data set [4] (setting [11]), the AUC(0-inf) was 5710 ± 744 ng·h/mL, the AUC(0-t) was 4730 ± 1290 ng·h/mL, the Cmax amounted to 481 ± 33.3 ng/mL and the Tmax was determined as 4.4 ± 1.52 h. In data set [4] (setting [11]), the half-life was 4.88 ± 2.91 h, the CL/F is 177 mL/min/kg, the MRT last worked out at 6.87 ± 1.33 h and the MRT inf came out at 9.2 ± 3.59 h. For the same molecule, in data set [4] (setting [12]), the “AUC(0–t), group B relative to group A” value is given as 1.72 fold; the “AUC(0–∞), group B relative to group A” value is given as 1.88 fold; the “CLz/F lower than group A” value is recorded as 48%; the “Cmax, group B relative to group A” value is given as 1.70 fold. Moreover, the Km in data set [5] worked out at 2.2 µM.

Turning to `C=CC[C@@H]1/C=C(\C)C[C@H](C)C[C@H](OC)[C@H]2O[C@@](O)(C(=O)C(=O)N3CCCC[C@H]3C(=O)O[C@H](/C(C)=C/[C@@H]3CC[C@@H](O)[C@H](OC)C3)[C@H](C)[C@@H](O)CC1=O)[C@H](C)C[C@@H]2OC` [tacrolimus], the “AUC increase when combined with isavuconazole” value in data set [6] is 125%.

`C[C@@H](c1ncncc1F)[C@](O)(Cn1cncn1)c1ccc(F)cc1F` [voriconazole]: the IC50 at 40 min in data set [1] is 325 µM; in data set [2] (setting [9]) it was 12.4 µM.

As to `Cc1ncc(NC(=O)c2ccc(CN3CCNCC3)c(C(F)(F)F)c2)cc1Nc1nccc(-c2cccnc2)n1` [M1, N-desmethyl flumatinib], the “effect of isavuconazole on pharmacokinetic parameters of the metabolite” value in data set [4] (combination vs control group) is “no effect; also recorded: No statistical significances”. Moreover, in data set [4] (setting [10]), the AUC(0-inf) turned out to be 314 ± 134 ng·h/mL, the AUC(0-t) was 282 ± 135 ng·h/mL, the concentration peaked (Cmax) at 19.9 ± 32.8 ng/mL and the time to peak (Tmax) turned out to be 2.6 ± 1.14 h. In data set [4] (setting [10]), the half-life is 5.28 ± 1.24 h, the CL/F was 3940 mL/min/kg, the MRT last came out at 6.73 ± 1.68 h and the MRT inf came to 8.86 ± 1.39 h. Also, in data set [4] (setting [11]), the AUC(0-inf) was determined as 395 ± 63.1 ng·h/mL, the AUC(0-t) was 352 ± 49.8 ng·h/mL, the highest level (Cmax) was 31.9 ± 3.98 ng/mL and the Tmax was determined as 5 ± 2.45 h. Also, in data set [4] (setting [11]), the half-life was 7.29 ± 2.01 h, the CL/F is 2580 mL/min/kg, the MRT last amounted to 8.2 ± 0.19 h and the MRT inf was found to be 11.2 ± 1.53 h.

As for `CO[C@H]1C[C@@H]2CC[C@@H](C)[C@@](O)(O2)C(=O)C(=O)N2CCCC[C@H]2C(=O)O[C@H]([C@H](C)C[C@@H]2CC[C@@H](O)[C@H](OC)C2)CC(=O)[C@H](C)/C=C(\C)[C@@H](O)[C@@H](OC)C(=O)[C@H](C)C[C@H](C)/C=C/C=C/C=C/1C` [sirolimus], the “AUC increase when combined with isavuconazole” value in data set [6] is listed as 84%.

`CCC(C)n1ncn(-c2ccc(N3CCN(c4ccc(OCC5COC(Cn6cncn6)(c6ccc(Cl)cc6Cl)O5)cc4)CC3)cc2)c1=O` (stereo not drawn) [itraconazole]: the IC50 at 40 min amounted to 11.6 µM in data set [1] and 1.06 µM in data set [2] (setting [9]).

Turning to `C[C@@H](c1nc(-c2ccc(C#N)cc2)cs1)[C@](O)(Cn1cncn1)c1cc(F)ccc1F` [isavuconazole], the IC50 at 40 min in data set [7] was 6.66 µM; in data set [2] (probe flumatinib 2.17 µM (at Km)), 0.62 µM. Further, the Inhibition type result in data set [3] was “mixed inhibitory mechanisms; also recorded: mixed type; also recorded: a mixture of competitive and non-competitive inhibition; also recorded: Mixed inhibition”; in data set [8], “mixed inhibitory mechanisms; also recorded: mixed type; also recorded: a mixture of competitive and non-competitive inhibition; also recorded: Mixed inhibition”. In data set [3], this molecule displayed a Ki of 1.44 µM. Also, the α in data set [3] was 0.52; in data set [8], 0.71.
